According to patent US20090005338A1, “Carbonyl-substituted titanocenes” (Charite - Universitatsmedizin Berlin, priority 2006, published 2009):

How the values were obtained:
[1] = system: lymphoma cells (BLAB); conditions: various concentrations, 72 h
Experimental: Lymphoma cells (BLAB) were treated with the carbonyl-substituted titanocene (2), the conventional nucleoside analogue cytarabin (AraC), which is used in the therapy of malignant diseases, and with the combination of (2) and AraC in various concentrations for 72 h. The apoptosis induction was examined by flow cytometry by measuring the DNA fragmentation after staining the cells with propidium iodide. The measured values of three independent examinations are shown, wherein the error bars show the standard deviations from the mean.

[2] = system: human lymphoma cells; conditions: SCID mice, microcrystalline suspension p.o., 5×50 mg/kg body weight per week over 2 weeks from day 14; Mann-Whitney U test p<0.05
Experimental: The mean values of the tumor volumes (*=significance) with standard deviations as a function of therapy duration (application of (2) from day 14 with 5×50 mg/kg body weight per week p.o. over 2 weeks) are shown.

[3] = system: BLAB cells; conditions: 3 h incubation, highest concentration
Experimental: A non-specific cytotoxic effect of the titanocenes via necrosis could be excluded by measuring the extracellular lactate dehydrogenase (LDH) release by ELISA reader detection after incubation for 3 h.

[4] = system: primary lymphoblasts from an ALL patient; assay: Apoptosis induction in primary lymphoblasts ex vivo (DNA fragmentation, propidium iodide, FACS); assay type: cell-based, human; conditions: 60 h, concentration in the range of LD50 in the BLAB cell line; for apoptosis induction in primary lymphoblasts (in words): therapy-resistant leukemia cells
Experimental: The concentrations employed were selected to always be within the respective range of LD50 when the BLAB cell line was used. Thereafter, the cells were incubated at 37° C. and 5% CO2 for 60 hours, followed by staining with propidium iodide and quantifying by flow cytometry in FACS (Prokop et al., 2003).
The incubation was effected at 37° C. and 5% CO2 for 60 h. Apoptosis induction was measured as DNA fragmentation by flow cytometry after propidium iodide staining.

[5] = SCID mice, oral therapy 50 mg/kg body weight
[6] = system: BJAB cells; conditions: 48 h, concentration-dependent
Experimental: After treatment of the cells with different concentrations of a titanocene including a zero control and a solvent control (DMSO), the cells are incubated at 37° C. and 5% CO2 for 48 hours.
The incubation was effected at 37° C. and 5% CO2 for 48 h including zero and solvent controls, followed by staining the cells with the mitochondria-specific stain JC-1 and detection of the color change and thus the change of the mitochondrial membrane potential by flow cytometry.

[7] = system: BJAB cells (Burkitt lymphoma cell line); assay: Apoptosis induction detected as DNA fragmentation by flow cytometry (FACS) after propidium iodide staining; assay type: cell-based; conditions: 72 h
Experimental: Within the scope of apoptotic cell death, the cell is dismantled proteolytically by caspases from inside. Thereupon, the DNA is also fragmented, inter alia. This DNA fragmentation, which is specific for apoptosis, is considered a proof of apoptosis induction and is detected by means of flow cytometry on the single cell level.
BJAB cells (Burkitt lymphoma cell line) in different concentrations were treated with a titanocene derivative and incubated at 37° C. and 5% CO2 for 72 hours. A control (untreated cell suspension) and a solvent control with dimethyl sulfoxide (DMSO) were continuously included. After incubation for 72 hours, apoptosis induction was detected by flow cytometry (FACS) through DNA fragmentation with propidium iodide (Eβmann, 2000).
FIG. 1: BLAB mock cells (1×10^5/ml) were treated with increasing concentrations of the titanocene derivative 4-[1-(dichlorotitanocenyl)]-4-methylbutyric acid n-octylamide (2) and incubated at 37° C. and 5% CO2 for 72 h. After propidium iodide staining, the DNA fragments were detected by flow cytometry (FACS analysis). Ko (untreated cell suspension) and DMSO (solvent control) were included with equivalent treatment.
Since the activity of the cytostatic agents develops in the malignant cells through a specific apoptosis induction, it is reasonable to measure this effect and thus the selectivity of our compounds rather than stating, as usual, the non-specific cytotoxicity described by the LC50 values. Therefore, for examining the structure-effect relationship of our titanocenes, we have established the concentration (AC50) at which a specific apoptosis is induced in […] of the lymphoma cells.
For determining this value, lymphoma cells (10^5/ml BJAB cells) were incubated in different concentrations with (21) at 5% CO2 and 37° C. for 72 h. After staining with propidium iodide, the DNA fragmentation was detected by flow cytometry by means of a FACS analysis.

[8] = system: BJAB cells; conditions: 75 μM, 72 h

Molecule: 4-[1-(dichlorotitanocenyl)]-4-methylbutyric acid n-octylamide [Complex (2)]
- effect of the combination with AraC on apoptosis induction [1]: significant synergistic effect
- growth of human lymphoma cells (tumor volume) [2]: significantly inhibited
- viability of the cell population (LDH release) [3]: above 94%
- apoptosis induction, proportion of leukemia cells ex vivo [4]: about 60%
- tolerability [5]: good tolerability
- proportion of cells with changed mitochondrial membrane potential (ΔΨm) [6]: more than 70%
- apoptosis induced, proportion of BJAB cells ([7]; 100 μM): about 840%
- AC50 ([7]; BJAB cell line, 37° C., 5% CO2, read-out: AC50 (concentration at which a specific apoptosis is induced in 500% of the lymphoma cells)): 55 µM
- concentration-dependent apoptosis induction (proportion of apoptotic cells in the total population) ([7]; BJAB, highest effect over the concentrations tested): up to 80%
- cell morphology [8]: significant swelling and “blebbing” that is characteristic of apoptosis

Molecule: Nc1ccn([C@@H]2O[C@H](CO)[C@@H](O)[C@@H]2O)c(=O)n1 [cytarabin]
- apoptosis induction in primary lymphoblasts (in words) [4]: did not induce any significant apoptosis

Molecule: COc1cccc2c1C(=O)c1c(O)c3c(c(O)c1C2=O)C[C@@](O)(C(C)=O)C[C@@H]3O[C@H]1C[C@H](N)[C@H](O)[C@H](C)O1 [daunorubicin]
- apoptosis induction in primary lymphoblasts (in words) [4]: did not induce any significant apoptosis

Molecule: COc1cccc2c1C(=O)c1c(O)c3c(c(O)c1C2=O)C[C@@](O)(C(=O)CO)C[C@@H]3O[C@H]1C[C@H](N)[C@H](O)[C@H](C)O1 [doxorubicin]
- apoptosis induction in primary lymphoblasts (in words) [4]: did not induce any significant apoptosis

Molecule: COc1cccc2c1C(=O)c1c(O)c3c(c(O)c1C2=O)C[C@@](O)(C(=O)CO)C[C@@H]3O[C@H]1C[C@H](N)[C@@H](O)[C@H](C)O1 [epirubicin]
- apoptosis induction in primary lymphoblasts (in words) [4]: did not induce any significant apoptosis

Molecule: CC(=O)[C@]1(O)Cc2c(O)c3c(c(O)c2[C@@H](O[C@H]2C[C@H](N)[C@H](O)[C@H](C)O2)C1)C(=O)c1ccccc1C3=O [idarubicin]
- apoptosis induction in primary lymphoblasts (in words) [4]: did not induce any significant apoptosis

Molecule: CC[C@]1(O)C[C@H]2CN(CCc3c([nH]c4ccccc34)[C@@](C(=O)OC)(c3cc4c(cc3OC)N(C=O)[C@H]3[C@@](O)(C(=O)OC)[C@H](OC(C)=O)[C@]5(CC)C=CCN6CC[C@]43[C@@H]65)C2)C1 [vincristin]
- apoptosis induction in primary lymphoblasts (in words) [4]: did not induce any significant apoptosis
